From paper PMC9516332 (Frontiers in Oncology, 2022) come the findings set out here.

Assay in all cases: Kinase panel profiling at 1 µmol/L (MSA or IMAP), percentage inhibition
Assay type in all cases: biochemical

The target of assay [1] is panel of 255 wild-type kinases (Homo sapiens, UniProt P08922). As to conditions: read-out: %-inhibition at 1 µmol/L, ROS.
For assay [2], the target named is panel of 255 wild-type kinases (Homo sapiens, UniProt P17948). The following applies: read-out: %-inhibition at 1 µmol/L, FLT1.
For assay [3], the target named is T1, panel of 255 wild-type kinases (Homo sapiens, UniProt P36888).
T1 sequence (P36888 27-993): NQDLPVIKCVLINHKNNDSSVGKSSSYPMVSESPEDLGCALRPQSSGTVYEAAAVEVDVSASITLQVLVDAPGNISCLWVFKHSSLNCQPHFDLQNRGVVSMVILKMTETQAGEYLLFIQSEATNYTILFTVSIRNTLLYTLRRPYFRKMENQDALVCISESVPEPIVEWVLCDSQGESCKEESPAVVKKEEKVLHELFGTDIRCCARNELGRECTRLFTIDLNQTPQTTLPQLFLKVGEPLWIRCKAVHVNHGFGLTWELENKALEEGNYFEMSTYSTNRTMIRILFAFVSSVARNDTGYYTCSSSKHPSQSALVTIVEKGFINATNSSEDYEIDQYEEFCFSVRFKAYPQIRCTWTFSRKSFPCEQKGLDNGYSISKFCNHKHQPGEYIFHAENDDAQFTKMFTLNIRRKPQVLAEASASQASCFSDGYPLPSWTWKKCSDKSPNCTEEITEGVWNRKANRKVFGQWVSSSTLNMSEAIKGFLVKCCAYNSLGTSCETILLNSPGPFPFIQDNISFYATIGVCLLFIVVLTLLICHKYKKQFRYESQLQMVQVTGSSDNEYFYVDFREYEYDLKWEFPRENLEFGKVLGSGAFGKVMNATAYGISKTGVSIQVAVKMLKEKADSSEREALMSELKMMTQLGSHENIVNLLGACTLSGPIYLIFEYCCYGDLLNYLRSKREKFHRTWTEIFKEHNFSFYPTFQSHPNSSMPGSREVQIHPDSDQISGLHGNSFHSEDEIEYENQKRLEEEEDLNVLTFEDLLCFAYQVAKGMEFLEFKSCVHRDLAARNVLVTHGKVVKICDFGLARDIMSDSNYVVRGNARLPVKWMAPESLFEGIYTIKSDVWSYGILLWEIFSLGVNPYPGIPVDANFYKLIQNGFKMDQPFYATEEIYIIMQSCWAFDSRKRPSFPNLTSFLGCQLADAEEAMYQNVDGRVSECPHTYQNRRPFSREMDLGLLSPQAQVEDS
The following applies: read-out: %-inhibition at 1 µmol/L, FLT3.

Assay [4] addresses T2, panel of 255 wild-type kinases (Homo sapiens, UniProt Q06418).
T2 sequence (Q06418 41-890): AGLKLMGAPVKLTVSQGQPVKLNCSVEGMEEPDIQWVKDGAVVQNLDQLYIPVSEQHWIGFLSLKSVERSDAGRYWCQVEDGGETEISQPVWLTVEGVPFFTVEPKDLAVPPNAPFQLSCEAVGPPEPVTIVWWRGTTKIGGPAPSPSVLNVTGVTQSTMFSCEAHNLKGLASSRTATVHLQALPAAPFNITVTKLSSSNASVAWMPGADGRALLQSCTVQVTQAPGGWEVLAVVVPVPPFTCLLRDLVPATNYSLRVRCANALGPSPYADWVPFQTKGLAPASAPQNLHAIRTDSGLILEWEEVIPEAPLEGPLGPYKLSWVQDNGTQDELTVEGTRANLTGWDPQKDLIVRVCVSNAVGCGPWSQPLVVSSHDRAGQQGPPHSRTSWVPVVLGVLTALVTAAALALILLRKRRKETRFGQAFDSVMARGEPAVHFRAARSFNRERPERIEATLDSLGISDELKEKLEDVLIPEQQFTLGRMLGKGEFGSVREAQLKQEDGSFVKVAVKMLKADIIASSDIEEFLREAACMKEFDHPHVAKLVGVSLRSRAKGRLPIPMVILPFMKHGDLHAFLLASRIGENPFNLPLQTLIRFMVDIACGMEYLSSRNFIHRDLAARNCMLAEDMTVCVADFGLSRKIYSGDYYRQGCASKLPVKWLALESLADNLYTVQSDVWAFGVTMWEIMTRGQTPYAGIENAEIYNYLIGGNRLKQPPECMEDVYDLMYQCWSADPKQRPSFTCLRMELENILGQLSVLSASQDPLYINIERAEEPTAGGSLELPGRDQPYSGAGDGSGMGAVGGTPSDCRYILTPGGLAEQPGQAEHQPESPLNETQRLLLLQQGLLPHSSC
As to conditions: read-out: %-inhibition at 1 µmol/L, TYRO3.

In assay [5] the target is panel of 255 wild-type kinases (Homo sapiens, UniProt Q9H2X6). The following applies: read-out: %-inhibition at 1 µmol/L, HIPK2.
Assay [6] has as its target panel of 255 wild-type kinases (Homo sapiens, UniProt Q9P289). As to conditions: read-out: %-inhibition, MST4.
Where [7] appears, read: kinase ROS, 1 µmol/L single concentration.
Setting [8] is: kinase FLT1, 1 µmol/L single concentration.
Where [9] appears, read: kinase FLT3, 1 µmol/L single concentration.
Setting [10] is: kinase TYRO3, 1 µmol/L single concentration.
[11] abbreviates: kinase HIPK2, 1 µmol/L single concentration.
[12] abbreviates: MST4, 1 µmol/L single concentration.

Structures are written as SMILES. Where two headings read alike, the source gives them in different places.

With `Cc1nc(NC(=O)N2CCC[C@H]2C(N)=O)sc1-c1ccnc(C(C)(C)C(F)(F)F)c1` [alpelisib], the inhibition at 1 µM is -6% in assay [1] (setting [7]); 3% in assay [2] (setting [8]); 6% in assay [3] (setting [9]); 1.52% in assay [4] (setting [10]); 3.33% in assay [5] (setting [11]); -12% in assay [6] (setting [12]).

For the compound `Cn1cc(-c2cc3c(N4CCN(c5ncc([C@@](C)(N)c6ccc(F)cc6)cn5)CC4)ncnn3c2)cn1` [avapritinib], the inhibition at 1 µM is 67% in assay [1] (setting [7]); 76% in assay [2] (setting [8]); 100% in assay [3] (setting [9]); 72% in assay [4] (setting [10]); 4% in assay [5] (setting [11]); 7% in assay [6] (setting [12]).

Consider `Cn1cnc2c(F)c(Nc3ccc(Br)cc3F)c(C(=O)NOCCO)cc21` [binimetinib], for which the inhibition at 1 µM was 16% in assay [1] (setting [7]); 10% in assay [2] (setting [8]); 12% in assay [3] (setting [9]); 5.28% in assay [4] (setting [10]); -4.27% in assay [5] (setting [11]); 0.492% in assay [6] (setting [12]).

For the compound `CNC(=O)c1ccc(-c2cnc3ncc(Cc4ccc5ncccc5c4)n3n2)cc1F` [capmatinib], the inhibition at 1 µM was 21% in assay [1]; 5.7% in assay [2]; 50% in assay [3]; 7% in assay [4]; 0.264% in assay [5]; -2.24% in assay [6].

Regarding `COc1cc2ncnc(Nc3ccc(F)c(Cl)c3)c2cc1NC(=O)/C=C/CN1CCCCC1` [dacomitinib], the inhibition at 1 µM in assay [1] (setting [7]) amounted to 22%; in assay [2] (setting [8]) it was 20%; in assay [3] (setting [9]) it was 56%; in assay [4] (setting [10]), 27%; in assay [5] (setting [11]), 4.76%; in assay [6] (setting [12]), 12%.

For the compound `C[C@H](Nc1ncnc2nc[nH]c12)c1cc2cccc(Cl)c2c(=O)n1-c1ccccc1` [duvelisib], the inhibition at 1 µM in assay [1] (setting [7]) is -3.53%; in assay [2] (setting [8]), 7.43%; in assay [3] (setting [9]), 10%; in assay [4] (setting [10]) it was 6%; in assay [5] (setting [11]) it was 0.116%; in assay [6] (setting [12]), -3.25%.

Take `COC(=O)N[C@@H](C)CNc1nccc(-c2cn(C(C)C)nc2-c2cc(Cl)cc(NS(C)(=O)=O)c2F)n1` [encorafenib]: the inhibition at 1 µM in assay [1] (setting [7]) was 14%; in assay [2] (setting [8]), 17%; in assay [3] (setting [9]), 9%; in assay [4] (setting [10]) it was 8%; in assay [5] (setting [11]), 0.238%; in assay [6] (setting [12]), -4.45%.

In the case of `CN1CCN(c2ccc(C(=O)Nc3n[nH]c4ccc(Cc5cc(F)cc(F)c5)cc34)c(NC3CCOCC3)c2)CC1` [entrectinib], the inhibition at 1 µM was 76% in assay [2] (setting [8]), 20% in assay [4] (setting [10]), 8% in assay [5] (setting [11]) and 6% in assay [6] (setting [12]).

On to `CCc1nc(C(N)=O)c(Nc2ccc(N3CCC(N4CCN(C)CC4)CC3)c(OC)c2)nc1NC1CCOCC1` [gilteritinib], for which the inhibition at 1 µM amounted to 100% in assay [1] (setting [7]); 95% in assay [2] (setting [8]); 99% in assay [3] (setting [9]); 93% in assay [4] (setting [10]); 84% in assay [5] (setting [11]); 4.67% in assay [6] (setting [12]).

Take `CCN1CCN(c2ccc(Nc3cc(N(C)C(=O)Nc4c(Cl)c(OC)cc(OC)c4Cl)ncn3)cc2)CC1` [infigratinib]: the inhibition at 1 µM in assay [1] (setting [7]) was 29%; in assay [2] (setting [8]) it was 91%; in assay [4] (setting [10]), 10%; in assay [5] (setting [11]), -0.912%; in assay [6] (setting [12]) it was -10%.

For the compound `O=C(Nc1cnn2ccc(N3CCC[C@@H]3c3cc(F)ccc3F)nc12)N1CC[C@H](O)C1` [larotrectinib], the inhibition at 1 µM in assay [1] was 86%; in assay [2] (setting [8]), -0.638%; in assay [3] (setting [9]), 6%; in assay [4] (setting [10]), 5.58%; in assay [5] (setting [11]) it was -0.39%; in assay [6] (setting [12]), 1.67%.

For `C[C@H]1Oc2cc(cnc2N)-c2c(nn(C)c2C#N)CN(C)C(=O)c2ccc(F)cc21` [lorlatinib], the inhibition at 1 µM in assay [1] (setting [7]) was 101%; in assay [2] (setting [8]) it was 3.17%; in assay [3] (setting [9]) it was 13%; in assay [4] (setting [10]), 9%; in assay [5] (setting [11]) it was -2%; in assay [6] (setting [12]) it was -8%.

Regarding `CCN1C(=O)N(c2c(F)c(OC)cc(OC)c2F)Cc2cnc3[nH]c(CN4CCOCC4)cc3c21` [pemigatinib], the inhibition at 1 µM was found to be 3.74% in assay [1] (setting [7]); 95% in assay [2] (setting [8]); 8% in assay [3] (setting [9]); 4% in assay [4] (setting [10]); 2.55% in assay [5] (setting [11]); 56% in assay [6] (setting [12]).

Turning to `FC(F)(F)c1ccc(CNc2ccc(Cc3c[nH]c4ncc(Cl)cc34)cn2)cn1` [pexidartinib], the inhibition at 1 µM came to 37% in assay [1] (setting [7]); 82% in assay [2] (setting [8]); 55% in assay [3] (setting [9]); 10% in assay [4] (setting [10]); 4.6% in assay [5] (setting [11]); 7% in assay [6] (setting [12]).

On to `CO[C@]1(C(=O)N[C@@H](C)c2ccc(-n3cc(F)cn3)nc2)CC[C@H](c2nc(C)cc(Nc3cc(C)[nH]n3)n2)CC1` [pralsetinib], for which the inhibition at 1 µM in assay [1] (setting [7]) was 94%; in assay [2] (setting [8]) it was 96%; in assay [3] (setting [9]) it was 101%; in assay [4] (setting [10]), 97%; in assay [5] (setting [11]) it was 11%; in assay [6] (setting [12]) it was -1.47%.

As for `CCn1c(=O)c(-c2cc(NC(=O)Nc3ccccc3)c(F)cc2Br)cc2cnc(NC)cc21` [ripretinib], the inhibition at 1 µM was 3.79% in assay [1] (setting [7]); 91% in assay [2] (setting [8]); 46% in assay [3] (setting [9]); 9.48% in assay [4] (setting [10]); 0.0334% in assay [5] (setting [11]); -0.174% in assay [6] (setting [12]).

`COc1ccc(CN2C3CC2CN(c2ccc(-c4cc(OCC(C)(C)O)cn5ncc(C#N)c45)cn2)C3)cn1` [selpercatinib]: the inhibition at 1 µM came out at 64% in assay [1] (setting [7]); 98% in assay [2] (setting [8]); 99% in assay [3] (setting [9]); 99% in assay [4] (setting [10]); 0.223% in assay [5] (setting [11]); 2.38% in assay [6] (setting [12]).
